Series [1] has as its system larvae of the mustard beetle (Phaedon cochleariae). The series is described as follows: Phaedon test (PHAECO spray treatment). To be noted: Phaedon cochleariae, in Brassica rapa, foliar, read-out: effect in % (beetle larvae killed).
Series [2] deals with caterpillars of the armyworm (Spodoptera frugiperda). Put plainly: Spodoptera frugiperda test (SPODFR spray treatment). The settings on record: Spodoptera frugiperda, in Zea mays, foliar, read-out: effect in % (caterpillars killed). It is filed as in vivo. An excerpt:
Solvent: 78.0 parts by weight of acetone

Series [3] can be described thus: log P determination by HPLC (EEC Directive 79/831 Annex V.A8). It is filed as physicochemical. To be noted: log P. On the procedure:
The measurements were carried out using an Agilent 1100 LC system with a 50*4.6 Zorbax Eclipse C18 1.8 μm column (oven temperature 55° C., flow rate 2.0 ml/min).
The following mobile phases were used:
Mobile phase A: acetonitrile+1000 μl of formic acid/l
Mobile phase B: Millipore water+900 μl of formic acid/l

The results in this text go back to patent US8324390B2, “Tetrazole-substituted anthranilamides as pesticides” (Bayer CropScience AG, priority 2008, dated 2012).

SMILES strings stand for the structures. A value given as a limit tells only on which side of the number the result lay.

As for `Cc1cc(Cl)cc(C(N)=O)c1NC(=O)c1cc(Cn2nnc(C(F)(F)C(F)(F)F)n2)nn1-c1ncccc1Cl` [Example 130], the pest or weed control at 100 g/ha in series [1] and in series [2] was at least 80% in each case. For the same molecule, the chromatographic logP in series [3] came to 3.15.

`Cc1cc(Cl)cc(C(=O)NCC2CC2)c1NC(=O)c1cc(Cn2nnc(C(F)(F)C(F)(F)F)n2)nn1-c1ncccc1Cl` [Example 131]: the pest or weed control at 100 g/ha in series [1] and in series [2] was at least 80% each time. In series [3], this molecule gave a chromatographic logP of 3.93.

As to `Cc1cc(Cl)cc(C(=O)NC2CCC2)c1NC(=O)c1cc(Cn2nnc(C(F)(F)C(F)(F)F)n2)nn1-c1ncccc1Cl` [Example 132], the pest or weed control at 100 g/ha in series [1] and in series [2] was at least 80% in each case. In series [3], this molecule displayed a chromatographic logP of 4.03.

As for `Cc1cc(C#N)cc(C(=O)NC(C)C)c1NC(=O)c1cc(Cn2nnc(C(F)(F)C(F)(F)F)n2)nn1-c1ncccc1Cl` [Example 135], the pest or weed control at 100 g/ha in series [1] and in series [2] was at least 80% each time. The same molecule came in with a chromatographic logP in series [3] of 3.55.

In the case of `Cc1cc(C#N)cc(C(=O)NCC2CC2)c1NC(=O)c1cc(Cn2nnc(C(F)(F)C(F)(F)F)n2)nn1-c1ncccc1Cl` [Example 138], the pest or weed control at 100 g/ha in series [1] and in series [2] was at least 80% throughout. Further, in series [3], the chromatographic logP was determined as 3.56.

Turning to `Cc1cc(C#N)cc(C(=O)NC2CCC2)c1NC(=O)c1cc(Cn2nnc(C(F)(F)C(F)(F)F)n2)nn1-c1ncccc1Cl` [Example 139], the pest or weed control at 100 g/ha in series [1] and in series [2] was at least 80% in each case. Besides, the chromatographic logP in series [3] came to 3.61.

For `CNC(=O)c1cc(I)cc(C)c1NC(=O)c1cc(Cn2nnc(C(F)(F)C(F)(F)F)n2)nn1-c1ncccc1Cl` [Example 140], the pest or weed control at 100 g/ha in series [1] and in series [2] was at least 80% in each case. Besides, the chromatographic logP in series [3] was 3.64.

For the molecule `Cc1cc(I)cc(C(=O)NC(C)C2CC2)c1NC(=O)c1cc(Cn2nnc(C(F)(F)C(F)(F)F)n2)nn1-c1ncccc1Cl` (stereo not drawn) [Example 141], the pest or weed control at 100 g/ha in series [1] and in series [2] was at least 80% throughout. Besides, the chromatographic logP in series [3] came out at 4.42.

`Cc1cc(I)cc(C(=O)NC(C)C)c1NC(=O)c1cc(Cn2nnc(C(F)(F)C(F)(F)F)n2)nn1-c1ncccc1Cl` [Example 142]: the pest or weed control at 100 g/ha in series [1] and in series [2] was at least 80% throughout. In series [3], this molecule gave a chromatographic logP of 4.19.

For `CNC(=O)c1cc(Br)cc(C)c1NC(=O)c1cc(Cn2nnc(C(F)(F)C(F)(F)F)n2)nn1-c1ncccc1Cl` [Example 143], the pest or weed control at 100 g/ha in series [1] and in series [2] was at least 80% in each case. Also, the chromatographic logP in series [3] was 3.5.

On to `Cc1cc(Br)cc(C(=O)NC2CC2)c1NC(=O)c1cc(Cn2nnc(C(F)(F)C(F)(F)F)n2)nn1-c1ncccc1Cl` [Example 145], for which the pest or weed control at 100 g/ha in series [1] and in series [2] was at least 80% each time. Also, the chromatographic logP in series [3] came out at 3.74.

Take `Cc1cc(Br)cc(C(=O)NC(C)C)c1NC(=O)c1cc(Cn2nnc(C(F)(F)C(F)(F)F)n2)nn1-c1ncccc1Cl` [Example 146]: the pest or weed control at 100 g/ha in series [1] and in series [2] was at least 80% in each case. In series [3], this molecule returned a chromatographic logP of 3.95.

`CNC(=O)c1cc(F)cc(C)c1NC(=O)c1cc(Cn2nnc(C(F)(F)C(F)(F)F)n2)nn1-c1ncccc1Cl` [Example 147]: the pest or weed control at 100 g/ha in series [1] and in series [2] was at least 80% each time. In series [3], the chromatographic logP was 3.09.

For `Cc1cc(F)cc(C(=O)NC(C)C2CC2)c1NC(=O)c1cc(Cn2nnc(C(F)(F)C(F)(F)F)n2)nn1-c1ncccc1Cl` (stereo not drawn) [Example 148], the pest or weed control at 100 g/ha in series [1] and in series [2] was at least 80% each time. In series [3], this molecule showed a chromatographic logP of 3.8.

`Cc1cc(F)cc(C(=O)NC(C)C)c1NC(=O)c1cc(Cn2nnc(C(F)(F)C(F)(F)F)n2)nn1-c1ncccc1Cl` [Example 149]: the pest or weed control at 100 g/ha in series [1] and in series [2] was at least 80% each time. The molecule also came in with a chromatographic logP in series [3] of 3.59.

As to `CC(NC(=O)c1cc(Cl)cc(Cl)c1NC(=O)c1cc(Cn2nnc(C(F)(F)C(F)(F)F)n2)nn1-c1ncccc1Cl)C1CC1` (stereo not drawn) [Example 150], the pest or weed control at 100 g/ha in series [1] and in series [2] was at least 80% throughout. In series [3], this molecule came in with a chromatographic logP of 4.12.

For `CCNC(=O)c1cc(Cl)cc(Cl)c1NC(=O)c1cc(Cn2nnc(C(F)(F)C(F)(F)F)n2)nn1-c1ncccc1Cl` [Example 152], the pest or weed control at 100 g/ha in series [1] and in series [2] was at least 80% in each case. Moreover, the chromatographic logP in series [3] is 3.57.

On to `NC(=O)c1cc(Cl)cc(Cl)c1NC(=O)c1cc(Cn2nnc(C(F)(F)C(F)(F)F)n2)nn1-c1ncccc1Cl` [Example 155], for which the pest or weed control at 100 g/ha in series [1] and in series [2] was at least 80% throughout. This molecule returned a chromatographic logP in series [3] of 3.13.

With `O=C(NCC1CC1)c1cc(Cl)cc(Cl)c1NC(=O)c1cc(Cn2nnc(C(F)(F)C(F)(F)F)n2)nn1-c1ncccc1Cl` [Example 156], the pest or weed control at 100 g/ha in series [1] and in series [2] was at least 80% in each case. In series [3], this molecule displayed a chromatographic logP of 3.88.

For the molecule `O=C(NC1CCC1)c1cc(Cl)cc(Cl)c1NC(=O)c1cc(Cn2nnc(C(F)(F)C(F)(F)F)n2)nn1-c1ncccc1Cl` [Example 157], the pest or weed control at 100 g/ha in series [1] and in series [2] was at least 80% each time. In series [3], the chromatographic logP turned out to be 3.92.

Take `CNC(=O)c1cc(Cl)cc(Cl)c1NC(=O)c1cc(Cn2nnnc2C(F)(F)F)nn1-c1ncccc1Cl` [Example 184]: the pest or weed control at 100 g/ha in series [1] and in series [2] was at least 80% throughout. Further, in series [3], the chromatographic logP worked out at 2.63.

Turning to `Cc1cc(C#N)cc(C(=O)NC(C)C2CC2)c1NC(=O)c1cc(Cn2nnnc2C(F)(F)F)nn1-c1ncccc1Cl` (stereo not drawn) [Example 185], the pest or weed control at 100 g/ha in series [1] and in series [2] was at least 80% each time. The chromatographic logP in series [3] turned out to be 3.

`C#CCNC(=O)c1cc(C#N)cc(C)c1NC(=O)c1cc(Cn2nnnc2C(F)(F)F)nn1-c1ncccc1Cl` [Example 187]: the pest or weed control at 100 g/ha in series [1] and in series [2] was at least 80% each time. Further, the chromatographic logP in series [3] worked out at 2.48.

For the molecule `Cc1cc(C#N)cc(C(N)=O)c1NC(=O)c1cc(Cn2nnnc2C(F)(F)F)nn1-c1ncccc1Cl` [Example 192], the pest or weed control at 100 g/ha in series [1] and in series [2] was at least 80% throughout. Further, the chromatographic logP in series [3] worked out at 2.12.

For `Cc1cc(C#N)cc(C(=O)NCC2CCCCC2)c1NC(=O)c1cc(Cn2nnnc2C(F)(F)F)nn1-c1ncccc1Cl` [Example 195], the pest or weed control at 100 g/ha in series [1] and in series [2] was at least 80% throughout. The same molecule gave a chromatographic logP in series [3] of 3.26.

In the case of `Cc1cc(Cl)cc(C(=O)NC(C)(C)C)c1NC(=O)c1cc(Cn2nnnc2C(F)(F)F)nn1-c1ncccc1Cl` [Example 197], the pest or weed control at 100 g/ha in series [1] and in series [2] was at least 80% each time. Besides, the chromatographic logP in series [3] was 3.47.

In the case of `CNC(=O)c1cc(Cl)cc(C)c1NC(=O)c1cc(Cn2nnnc2C(F)(F)C(F)(F)F)nn1-c1ncccc1Cl` [Example 198], the pest or weed control at 100 g/ha in series [1] and in series [2] was at least 80% in each case. The chromatographic logP in series [3] came to 3.1.

In the case of `Cc1cc(Cl)cc(C(=O)NC(C)C2CC2)c1NC(=O)c1cc(Cn2nnnc2C(F)(F)C(F)(F)F)nn1-c1ncccc1Cl` (stereo not drawn) [Example 199], the pest or weed control at 100 g/ha in series [1] and in series [2] was at least 80% each time. The molecule further had a chromatographic logP in series [3] of 3.88.

Turning to `Cc1cc(C#N)cc(C(=O)NC(C)C)c1NC(=O)c1cc(Cn2nnnc2C(F)(F)C(F)(F)F)nn1-c1ncccc1Cl` [Example 202], the pest or weed control at 100 g/ha in series [1] and in series [2] was at least 80% in each case. The chromatographic logP in series [3] came to 3.14.

As for `O=C(NC1CC1)c1cc(Cl)cc(Cl)c1NC(=O)c1cc(Cn2nnnc2C(F)(F)C(F)(F)F)nn1-c1ncccc1Cl` [Example 204], the pest or weed control at 100 g/ha in series [1] and in series [2] was at least 80% in each case. For the same molecule, the chromatographic logP in series [3] was 3.24.

For the molecule `CC(C)NC(=O)c1cc(Cl)cc(Cl)c1NC(=O)c1cc(Cn2nnnc2C(F)(F)C(F)(F)F)nn1-c1ncccc1Cl` [Example 205], the pest or weed control at 100 g/ha in series [1] and in series [2] was at least 80% in each case. For the same molecule, the chromatographic logP in series [3] was 3.52.

With `CC(C)(C)NC(=O)c1cc(Cl)cc(Cl)c1NC(=O)c1cc(Cn2nnnc2C(F)(F)C(F)(F)F)nn1-c1ncccc1Cl` [Example 206], the pest or weed control at 100 g/ha in series [1] and in series [2] was at least 80% each time. The molecule also showed a chromatographic logP in series [3] of 3.88.

As to `Cc1cc(C#N)cc(C(=O)NCC(F)F)c1NC(=O)c1cc(Cn2nnnc2C(F)(F)F)nn1-c1ncccc1Cl` [Example 207], the pest or weed control at 100 g/ha in series [1] and in series [2] was at least 80% throughout. In series [3], this molecule showed a chromatographic logP of 2.57.

Turning to `Cc1cc(C#N)cc(C(=O)NCC#N)c1NC(=O)c1cc(Cn2nnnc2C(F)(F)F)nn1-c1ncccc1Cl` [Example 208], the pest or weed control at 100 g/ha in series [1] and in series [2] was at least 80% in each case. The same molecule registered a chromatographic logP in series [3] of 2.31.

For the molecule `Cc1cc(C#N)cc(C(=O)NCC#N)c1NC(=O)c1cc(Cn2nnc(C(F)(F)C(F)(F)F)n2)nn1-c1ncccc1Cl` [Example 210], the pest or weed control at 100 g/ha in series [1] and in series [2] was at least 80% in each case. Besides, the chromatographic logP in series [3] came out at 3.01.

One may read the chromatographic logP as a lipophilicity value derived from retention on a column. A lower chromatographic logP goes with lower lipophilicity.
